Data taken from article PMC3152620 (Peptides, 2011).
No end group written: not given here.

Biological target: human NMB receptor (Homo sapiens, UniProt P28336)
Test: Binding to hNMB receptors, both cell lines
Conditions: relative to the natural ligand NMB

Sequence of human NMB receptor (P28336 whole entry): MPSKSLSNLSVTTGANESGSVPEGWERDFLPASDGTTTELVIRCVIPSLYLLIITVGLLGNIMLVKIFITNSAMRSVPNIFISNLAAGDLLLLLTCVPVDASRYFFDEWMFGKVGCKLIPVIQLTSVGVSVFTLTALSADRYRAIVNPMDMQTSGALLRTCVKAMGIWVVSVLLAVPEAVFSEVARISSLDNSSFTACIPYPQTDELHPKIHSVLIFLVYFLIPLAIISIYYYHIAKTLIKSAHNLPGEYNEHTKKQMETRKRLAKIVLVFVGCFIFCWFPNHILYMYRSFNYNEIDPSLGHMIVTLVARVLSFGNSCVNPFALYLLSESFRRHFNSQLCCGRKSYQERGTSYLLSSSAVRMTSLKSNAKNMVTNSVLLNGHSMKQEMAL

LSWDLPEPRSRAGKIRVHPRGNLWATGHFM-NH2 [NMB30, Neuromedin B (1–30)]
Fold lower affinity for human NMB receptor than NMB: > 3 fold
